Reference: PMC8781960, “Structural Basis of 2-Phenylamino-4-phenoxyquinoline Derivatives as Potent HIV-1 Non-Nucleoside Reverse Transcriptase Inhibitors” (Molecules, 2022)
Marks after values point to notes of the source that are not given here.

Columns and labels:
[1] = system: H69AR (lung cancer, multidrug resistant); test: In vitro cytotoxicity (MTT); type: cell-based, human; details: 48 h; for %C percentage cytotoxicity H69AR: human, 50 µg/mL
Procedure: Background control wells contained the same volume as the complete culture medium. […] The reagent was dissolved in phosphate-buffered saline at 5 mg/mL and filtered to sterilize and remove the small amount of insoluble residue present in some batches of MTT. […] Subsequently, dimethyl sulfoxide (100 µL; Merck, Germany) was added to dissolve the resulting formazan by sonication. The plates were read on a microplate reader (Molecular Devices, CA, USA) using a test wavelength of 550 nm and a reference wavelength of 650 nm.

[2] = biological target: T1, HIV-1 RT (Human immunodeficiency virus type 1 group M subtype B, UniProt P03366); set-up: method as in PMID 31698495; details: 1 µM; previously reported values for 5a–5d; cited from earlier work
T1 construct: The reaction mixture consisted of template/primer complex, 2′-deoxy-nucleotide-5′-triphosphates (dNTPs), and RT enzyme in lysis buffer; purchased Roche Applied Science, Mannheim, Germany

[3] = system: MRC-5 (normal embryonic lung cell); test: In vitro cytotoxicity (MTT), normal cell line; details: for IC50: Homo sapiens, MRC5, 48 h, read-out: IC50 MRC-5; for %C percentage cytotoxicity MRC-5: normal cell line, at 50 µg/mL, inactive (IC50 ≥ 50 µg/mL)
Procedure: (§1) Background control wells contained the same volume as the complete culture medium. […] Samples at various concentrations were added to the microplate and incubated for another 48 h. Cell viability was determined by 3(4,5-dimethylthiazol-2-yl)-2-5-diphenyl tetrazolium bromide (MTT) assay (Sig-ma-Aldrich). The reagent was dissolved in phosphate-buffered saline at 5 mg/mL and filtered to sterilize and remove the small amount of insoluble residue present in some batches of MTT. […] Subsequently, dimethyl sulfoxide (100 µL; Merck, Germany) was added to dissolve the resulting formazan by sonication. The plates were read on a microplate reader (Molecular Devices, CA, USA) using a test wavelength of 550 nm and a reference wavelength of 650 nm. XTT assay for suspension cells was used for MOLT-3 cells.

[4] = system: S102 (Thai liver cancer); test: In vitro cytotoxicity (MTT); details: for %C percentage cytotoxicity S102: at 50 µg/mL, inactive (IC50 ≥ 50 µg/mL)
Procedure: as §1

[5] = system: HeLA (cervical carcinoma); test: In vitro cytotoxicity (MTT); details: for IC50: Homo sapiens, HeLa, 48 h, read-out: IC50 HeLA; for %C percentage cytotoxicity HeLA: at 50 µg/mL, inactive (IC50 ≥ 50 µg/mL)
Procedure: as §1

[6] = system: HuCCA-1 (cholangiocarcinoma); test: In vitro cytotoxicity (MTT); details: for IC50: Homo sapiens, HuCC-A1, 48 h, read-out: IC50 HuCCA-1; for %C percentage cytotoxicity HuCCA-1: at 50 µg/mL, inactive (IC50 ≥ 50 µg/mL)
Procedure: as §1

[7] = system: MDA-MB-231 (hormone-independent breast cancer); test: In vitro cytotoxicity (MTT); details: for IC50: Homo sapiens, MDA-MB-231, 48 h, read-out: IC50 MDA-MB-231; for %C percentage cytotoxicity MDA-MB-231: at 50 µg/mL, inactive (IC50 ≥ 50 µg/mL)
Procedure: as §1

[8] = system: HepG2 (hepatocarcinoma); test: In vitro cytotoxicity (MTT); details: for IC50: Homo sapiens, HepG2, 48 h, read-out: IC50 HepG2; for %C percentage cytotoxicity HepG2: at 50 µg/mL, inactive (IC50 ≥ 50 µg/mL)
Procedure: as §1

[9] = system: HL-60 (promyeloblast); test: In vitro cytotoxicity (MTT); details: for IC50: Homo sapiens, HL-60, 48 h, read-out: IC50 HL-60; for %C percentage cytotoxicity HL-60: at 50 µg/mL, inactive (IC50 ≥ 50 µg/mL)
Procedure: as §1

[10] = system: T47-D (hormone-dependent breast cancer); test: In vitro cytotoxicity (MTT); details: for IC50: Homo sapiens, T47D, 48 h, read-out: IC50 T47-D; for %C percentage cytotoxicity T47-D: at 50 µg/mL, inactive (IC50 ≥ 50 µg/mL)
Procedure: as §1

[11] = system: A549 (lung carcinoma); test: In vitro cytotoxicity (MTT); details: for IC50: Homo sapiens, A549, 48 h, read-out: IC50 A549; for %C percentage cytotoxicity A549: at 50 µg/mL, inactive (IC50 ≥ 50 µg/mL)
Procedure: as §1

[12] = system: MOLT-3 (acute lymphoblastic leukemia); test: In vitro cytotoxicity (XTT); details: for IC50: Homo sapiens, MOLT-3, 48 h, read-out: IC50 MOLT-3; for %C percentage cytotoxicity MOLT-3: at 50 µg/mL, inactive (IC50 ≥ 50 µg/mL)
Procedure: as §1

[13] = biological target: T1, HIV-1 RT; test: HIV-1 RT inhibition assay (Roche RT kit, colorimetric ELISA); type: biochemical; details: read-out: Inhibitory activities (%) against HIV-1 RT
Source text: The inhibition assay of HIV-1 RT was accomplished using the template/primer hybrid poly(A) × oligo(dT)15, digoxigenin (DIG)- and biotin-labeled nucleotides, an antibody to DIG that was conjugated to peroxidase (anti-DIG-POD), and the peroxidase substrate ABTS. The quantities of DIG- and biotin-labeled dUTP incorporated into DNA represent t HIV-1 RT activity. The HIV-RT inhibition assay was implemented using an RT assay kit (Roche Applied Science, Mannheim, Germany), and the procedures for assaying RT inhibition were performed as described in the kit protocol. […] The reaction mixture consisted of template/primer complex, 2′-deoxy-nucleotide-5′-triphosphates (dNTPs), and RT enzyme in lysis buffer with or without an inhibitor. […] The biotin-labeled dNTPs that were incorporated in the template bound to streptavidin because of the presence of RT. Unbound dNTPs were washed using a wash buffer, and anti-DIG-POD was added to the MTP. The DIG-labeled dNTPs incorporated in the template bound to the anti-DIG-POD antibody. Unbound anti-DIG-POD was also washed elaborately five times using a wash buffer. Finally, the peroxide substrate (ABST) was added to the MTP. A colored reaction product emerged during the cleavage of the substrate catalyzed by […]. The absorbance of the sample was measured at the optical density (OD) at 490 nm using the MTP (enzyme-linked immunosorbent assay [ELISA]) reader. The percentage inhibitory activities of the RT inhibitors were calculated by comparing with that of the sample without an inhibitor. The resulting color intensity was directly proportional to the RT activity. Percentage inhibitory values were calculated using the following formula: Inhibition (%) = [1–(OD value with RT and inhibitor−OD value without RT and inhibitors)/(OD value without inhibitors with RT−OD value without RT and inhibitors)] × 100.

Compound | %C percentage cytotoxicity H69AR [1] | melting point [°C] | Inhibitory activities (%) against HIV-1 RT [2] [%] | IC50 [3] [µM] | %C percentage cytotoxicity S102 [4] | IC50 [5] [µM] | IC50 [6] [µM] | IC50 [7] [µM] | IC50 [8] [µM] | IC50 [9] [µM] | IC50 [10] [µM] | IC50 [11] [µM] | IC50 [12] [µM] | %C percentage cytotoxicity MRC-5 [3] | %C percentage cytotoxicity HeLA [5] | %C percentage cytotoxicity HuCCA-1 [6] | %C percentage cytotoxicity MDA-MB-231 [7] | %C percentage cytotoxicity HepG2 [8] | %C percentage cytotoxicity T47-D [10] | %C percentage cytotoxicity A549 [11] | also measured
N#Cc1ccc(Nc2cc(Oc3ccc(C=O)cc3)c3ccccc3n2)cc1 [Compound 5a, 4-(4′-formylphenoxy)-2-(4″-cyanophenyl)-aminoquinoline] | %C = 38.0 ^c | 267.1 to 268 | 19.4 ± 1.7 | 108 ± 4.7 | %C = 20.9 ^c | 12.6 ± 1.3 | 29.7 ± 2 | 77.7 ± 5.9 | 73.2 ± 7.7 | 16.6 ± 4.7 | 43 ± 5.3 | 122 ± 4.5 | 15.6 ± 3.6 |  |  |  |  |  |  |  | 
Cc1cc(C=O)cc(C)c1Oc1cc(Nc2ccc(C#N)cc2)nc2ccccc12 [Compound 5b, 4-(2′,6′-Dimethyl-4′-formylphenoxy)-2-(4″-cyanophenyl)-aminoquinoline] |  | 291.3 to 292.2 | 34.0 ± 2.5 | 69.8 ± 4.3 |  | 3.9 ± 0.6 | 29.4 ± 2 | 15.9 ± 0.4 | 65.9 ± 6.1 | 4.5 ± 0.2 | 22.9 ± 0.9 | 51.2 ± 3 | 11.8 ± 1.6 |  |  |  |  |  |  |  | IC50 ([1]; Homo sapiens, H69AR, mean ± standard error): 27.6 ± 3.4 µM; IC50 ([4]; Homo sapiens, 48 h, read-out: IC50 S102): 74 ± 5.3 µM
N#Cc1ccc(Nc2cc(Oc3ccc(C#N)cc3)c3ccccc3n2)cc1 [Compound 5c, 4-(4′-cyanophenoxy)-2-(4″-cyanophenyl)-aminoquinoline] | %C = 26.0 ^c |  | 39.7 ± 3.0 |  | %C = 0.0 ^c |  |  |  |  |  |  |  |  | %C = 12.0 ^c | %C = 25.0 ^c | %C = 23.0 ^c | %C = 38.4 ^c | %C = 44.8 ^c | %C = 45.0 ^c | %C = 26.0 ^c | %C percentage cytotoxicity HL-60 [9]: %C = 2.0 ^c; %C percentage cytotoxicity MOLT-3 [12]: %C = 6.0 ^c
Cc1cc(C#N)cc(C)c1Oc1cc(Nc2ccc(C#N)cc2)nc2ccccc12 [Compound 5d, 4-(2′,6′-Dimethyl-4′-cyanophenoxy)-2-(4″-cyanophenyl)-aminoquinoline] | %C = 0.0 ^c | 256.5 to 257 | 27.8 ± 3.1 |  | %C = 0.0 ^c | 83.4 ± 5.7 |  |  |  | 33.4 ± 1.7 |  |  | 48.8 ± 41 | %C = 7.4 ^c |  | %C = 3.0 ^c | %C = 14.9 ^c | %C = 38.2 ^c | %C = 24.0 ^c | %C = 21.0 ^c | 
Cc1cc(C#N)cc(C)c1Oc1cc(Nc2ccc(C#N)cc2)c2ccccc2n1 [Compound 8d, 2-(2′,6′-Dimethyl-4′-cyanophenoxy)-4-(4″-cyanophenyl)-aminoquinoline] | %C = 0.0 ^c | 201.3 to 202 |  |  | %C = 0.0 ^c | 104 ± 4.7 |  |  |  | 56.6 ± 4.7 |  |  | 67.4 ± 3.1 | %C = 15.5 ^c |  | %C = 18.4 ^c | %C = 32.4 ^c | %C = 32.0 ^c | %C = 31.0 ^c | %C = 29.1 ^c | inhibition at 1 µM [13]: 34.5 ± 2.3%
Cc1cc(C=CC#N)cc(C)c1Oc1cc(Nc2ccc(C#N)cc2)c2ccccc2n1 [Compound 11b, 2-(4′-(2″-(E, Z)-cyanovinyl)-2′,6′-dimethyl-phenoxy)-4-(4″-cyanophenyl)-aminoquinoline] | %C = 3.0 ^c | 180.7 to 182.3 |  |  | %C = 0.0 ^c |  |  |  |  |  |  |  |  | %C = 0.0 ^c | %C = 2.0 ^c | %C = 0.0 ^c | %C = 14.1 ^c | %C = 3.7 ^c | %C = 4.0 ^c | %C = 0.0 ^c | inhibition at 1 µM [13]: 34.3 ± 2.6%; %C percentage cytotoxicity HL-60 [9]: %C = 0.0 ^c; %C percentage cytotoxicity MOLT-3 [12]: %C = 19.0 ^c
